Source: PubChem BioAssay (NCI)
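Briefly, cells in 96-well plates were exposed to five compound concentrations for 48 h, and endpoints were estimated by linear interpolation. At the GI50, growth is halved. The concentration for full growth arrest is given as TGI.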

How the values were obtained:
Experiment in all cases: growth of human tumour cells (NCI), 48 h
IGROV1 ovarian = tested on: IGROV1 ovarian
COLO 205 colon = tested on: COLO 205 colon
MCF7 breast = tested on: MCF7 breast
SNB-75 CNS = tested on: SNB-75 CNS
NCI-H460 lung = tested on: NCI-H460 lung
K-562 leukemia = tested on: K-562 leukemia
NCI-H522 lung = tested on: NCI-H522 lung
U251 CNS = tested on: U251 CNS
NCI-H23 lung = tested on: NCI-H23 lung
A498 renal = tested on: A498 renal

With `CC[C@]12C=CCN3CC[C@@]4(c5ccc(OC)cc5N(C)[C@H]4[C@@](O)(C(=O)OC)[C@@H]1OC(=O)CCCN1CCN(CCCC(=O)O[C@@H]4[C@]5(CC)C=CCN6CC[C@@]7(c8ccc(OC)cc8N(C)[C@H]7[C@@]4(O)C(=O)OC)[C@@H]65)CC1)[C@@H]32` as the compound, how does the GI50 (IGROV1 ovarian) read?
The GI50 was 0.635 µM.

What about the TGI (IGROV1 ovarian) of the same compound?
The TGI was 1.99 µM.

And the GI50 (COLO 205 colon)?
Its GI50 is 1.67 µM.

And the TGI (COLO 205 colon)?
The TGI was 3.25 µM.

And the GI50 (MCF7 breast)?
The GI50 was 0.548 µM.

And the TGI (MCF7 breast)?
The TGI was 1.96 µM.

What about the GI50 (SNB-75 CNS) of the same compound?
Its GI50 is 0.564 µM.

What about the TGI (SNB-75 CNS) of the same compound?
Its TGI is 1.95 µM.

What about the GI50 (NCI-H460 lung) of the same compound?
The GI50 was 1.11 µM.

What about the TGI (NCI-H460 lung) of the same compound?
The TGI was 2.5 µM.

And the GI50 (K-562 leukemia)?
The GI50 was 0.18 µM.

What about the TGI (K-562 leukemia) of the same compound?
Its TGI is 0.365 µM.

What about the GI50 (NCI-H522 lung) of the same compound?
Its GI50 is 1.78 µM.

And the TGI (NCI-H522 lung)?
The TGI was 3.52 µM.

What about the GI50 (U251 CNS) of the same compound?
Its GI50 is 1.35 µM.

And the TGI (U251 CNS)?
Its TGI is 2.86 µM.

And the GI50 (NCI-H23 lung)?
The GI50 was 1.59 µM.

And the TGI (NCI-H23 lung)?
Its TGI is 3.13 µM.

And the GI50 (A498 renal)?
The GI50 was 1.6 µM.

What about the TGI (A498 renal) of the same compound?
The TGI was 3.49 µM.

Which GI50 (IGROV1 ovarian) does the source give for `O=C(O)CSc1cc(NS(=O)(=O)c2ccc(Br)cc2)c2ccccc2c1O` here?
Its GI50 is 3.03 µM.

What about the TGI (IGROV1 ovarian) of the same compound?
The TGI was 8.76 µM.

What about the GI50 (COLO 205 colon) of the same compound?
Its GI50 is 13.1 µM.

And the TGI (COLO 205 colon)?
The TGI was 28.4 µM.

What about the GI50 (MCF7 breast) of the same compound?
Its GI50 is 5.71 µM.

And the TGI (MCF7 breast)?
Its TGI is 19.8 µM.

What about the GI50 (SNB-75 CNS) of the same compound?
The GI50 was 24 µM.

What about the TGI (SNB-75 CNS) of the same compound?
Its TGI is 42.4 µM.

What about the GI50 (NCI-H460 lung) of the same compound?
Its GI50 is 18.8 µM.

And the TGI (NCI-H460 lung)?
The TGI was 37.4 µM.

What about the GI50 (K-562 leukemia) of the same compound?
The GI50 was 19.7 µM.

What about the TGI (K-562 leukemia) of the same compound?
Its TGI is over 59.6 µM.

What about the GI50 (NCI-H522 lung) of the same compound?
The GI50 was 16.2 µM.

And the TGI (NCI-H522 lung)?
Its TGI is 33.7 µM.

What about the GI50 (U251 CNS) of the same compound?
Its GI50 is 15 µM.

What about the TGI (U251 CNS) of the same compound?
Its TGI is 30.9 µM.

And the GI50 (NCI-H23 lung)?
Its GI50 is 7.25 µM.

What about the TGI (NCI-H23 lung) of the same compound?
Its TGI is 38 µM.

What about the GI50 (A498 renal) of the same compound?
The GI50 was 18.3 µM.

What about the TGI (A498 renal) of the same compound?
The TGI was 34.7 µM.

`O=C(CCN1CCOCC1)Nc1ccc(Cn2nnc3c2C(=O)c2nnn(Cc4ccc(NC(=O)CCN5CCOCC5)cc4)c2C3=O)cc1` was tested. Which GI50 (COLO 205 colon) did it give?
Its GI50 is 0.645 µM.

What about the TGI (COLO 205 colon) of the same compound?
The TGI was 2.13 µM.

What about the GI50 (MCF7 breast) of the same compound?
The GI50 was 0.271 µM.

And the TGI (MCF7 breast)?
The TGI was 0.978 µM.

And the GI50 (SNB-75 CNS)?
Its GI50 is 1.93 µM.

And the TGI (SNB-75 CNS)?
The TGI was 3.6 µM.

And the GI50 (NCI-H460 lung)?
Its GI50 is 0.569 µM.

What about the TGI (NCI-H460 lung) of the same compound?
The TGI was over 100 µM.

And the GI50 (K-562 leukemia)?
The GI50 was 1.81 µM.

What about the TGI (K-562 leukemia) of the same compound?
Its TGI is over 100 µM.

What about the GI50 (NCI-H522 lung) of the same compound?
The GI50 was 1.63 µM.

What about the TGI (NCI-H522 lung) of the same compound?
The TGI was 4.34 µM.

What about the GI50 (U251 CNS) of the same compound?
Its GI50 is 4.25 µM.

What about the TGI (U251 CNS) of the same compound?
Its TGI is 18.4 µM.

And the GI50 (NCI-H23 lung)?
The GI50 was 1.43 µM.

What about the TGI (NCI-H23 lung) of the same compound?
Its TGI is 5.52 µM.

And the GI50 (A498 renal)?
Its GI50 is over 100 µM.

What about the TGI (A498 renal) of the same compound?
The TGI was over 100 µM.

For `COc1cc2c3c(n(CCCN)c(=O)c2cc1OC)-c1ccc(N)cc1C3=O`, which GI50 (IGROV1 ovarian) is on record?
The GI50 was 1.43 µM.

What about the TGI (IGROV1 ovarian) of the same compound?
Its TGI is over 50.4 µM.

And the GI50 (COLO 205 colon)?
The GI50 was 0.554 µM.

And the TGI (COLO 205 colon)?
Its TGI is 10.2 µM.

And the GI50 (MCF7 breast)?
Its GI50 is 1.66 µM.

What about the TGI (MCF7 breast) of the same compound?
The TGI was over 38.2 µM.

What about the GI50 (SNB-75 CNS) of the same compound?
The GI50 was 1.75 µM.

What about the TGI (SNB-75 CNS) of the same compound?
The TGI was 12.3 µM.

What about the GI50 (NCI-H460 lung) of the same compound?
Its GI50 is 4.52 µM.

And the TGI (NCI-H460 lung)?
The TGI was 16.8 µM.

And the GI50 (K-562 leukemia)?
The GI50 was 0.155 µM.

And the TGI (K-562 leukemia)?
The TGI was 12 µM.

What about the GI50 (NCI-H522 lung) of the same compound?
The GI50 was 0.78 µM.

What about the TGI (NCI-H522 lung) of the same compound?
The TGI was 16.7 µM.

And the GI50 (U251 CNS)?
Its GI50 is 0.575 µM.

What about the TGI (U251 CNS) of the same compound?
The TGI was 6.84 µM.

And the GI50 (NCI-H23 lung)?
The GI50 was 1.62 µM.

What about the TGI (NCI-H23 lung) of the same compound?
Its TGI is 9.75 µM.

And the GI50 (A498 renal)?
Its GI50 is 1.93 µM.

And the TGI (A498 renal)?
The TGI was 9.78 µM.

Which results are given for `O=C1[C@H](Cc2ccc(O)cc2)N2C(=O)CCN(C(=O)NCc3ccccc3)[C@H]2CN1Cc1cccc2ccccc12`?
GI50 (IGROV1 ovarian): 1.42 µM; TGI (IGROV1 ovarian): 10.5 µM; GI50 (COLO 205 colon): 0.748 µM; TGI (COLO 205 colon): 2.76 µM; GI50 (MCF7 breast): 6.02 µM; TGI (MCF7 breast): 39 µM; GI50 (SNB-75 CNS): 0.399 µM; TGI (SNB-75 CNS): 25.3 µM; GI50 (NCI-H460 lung): 1.73 µM; TGI (NCI-H460 lung): 7.23 µM; GI50 (K-562 leukemia): 2.06 µM; TGI (K-562 leukemia): > 100 µM; GI50 (NCI-H522 lung): 0.901 µM; TGI (NCI-H522 lung): 12 µM; GI50 (U251 CNS): 0.985 µM; TGI (U251 CNS): 18.6 µM; GI50 (NCI-H23 lung): 4.05 µM; TGI (NCI-H23 lung): 34.5 µM; GI50 (A498 renal): 1.38 µM; TGI (A498 renal): 6.75 µM
